Data on three compounds can be found in patent publication US7405081B2, “Methods and kits for identifying scavengers of reactive oxygen species (ROS)” (priority 2001, dated 2008).

Marks after values point to notes of the source that are not given here.

Data set [1] is described as follows: Peroxidase activity staining of cell extracts. The class given is biochemical, Agrobacterium tumefaciens. The conditions noted are these: same cell extracts.
Another data set concerns aopB-gfp. Briefly: aopB-gfp expression in strain CGI1 (specificity control). The class given is cell-based, Agrobacterium tumefaciens. The conditions noted are these: pXQ9 introduced into CGI1, IB (pH 5.5). The procedure: To study the katA gene expression in different genetic backgrounds, A. tumefaciens strains A348, AG6, AG6 (pSW172), AG6 (pXQ9), A613, CGI1 and CGI1 (pXQ9) were grown at 28° C. for 24 hours on IB (pH 5.5) agar plates. The fluorescence of each strain was determined as described above.
To determine if katA could specifically repress katA-gfp, pXQ9 was introduced into a different mini-Tn5 transposon mutant strain CGI1, which contained the transposon insertion at a chromosomal gene aopB and could produce bright green fluorescence under UV light.

The nature of data set [2]: Catalase activity assay in whole bacterial cells (Amplex Red Catalase Assay Kit). The class given is cell-based, Agrobacterium tumefaciens. The conditions noted are these: whole cells grown on IB plates. The procedure:
Catalase activity assay: The catalase activity in whole bacterial cells was determined as previously described (Maciver and Hansen, 1996) except using the Amplex Red Catalase Assay Kit (Molecular Probes Inc., USA). Briefly, A. tumefaciens strains were grown at 28° C. for 24 hr on IB plates. The cells were harvested, washed and resuspended at OD600=1.0 in 50 mM phosphate-buffer (pH 7.4). For the strains with the wild type katA [A348, AG6 (pXQ9), and AG6 (pXQ23)], 100 μl cell suspension of each sample was incubated with 50 μl 40 μM H2O2 at time intervals of 0, 30 sec, 1 min and 2 min.
For the strains with the katA mutants [AG6, AG6 (pXQ11), AG6 (pXQ22), AG6 (pXQ26) and AG6 (pXQ27)], 100 μl cell suspension of each sample was incubated with 50 μl 5 μM H2O2 at time intervals of 0, 1, 2, and up to 6 min. The amount of H2O2 left after degradation by the bacterial catalase was then determined by adding 50 μl Amplex Red reagent N-acetyl-3, 7-dihydroxyphenoxazine at 25 μM and 0.4 U/ml horse radish peroxidase provided by the kit. The fluorometric assay was conducted by the same procedure as described above for the measurement of intracellular H2O2. The cell suspensions without the added H2O2 were used as the blank. Solutions of crystalline bovine catalase (Sigma) were used to standardize this assay.
The catalase activity in whole bacterial cells was determined as described above in Example 1 (“Catalase activity assay”).

Data set [3] has as its system katA-gfp fusion in AG6 cells. Briefly: Extracellular catalase added to IB plates, GFP expression of AG6 cells. The class given is cell-based, Agrobacterium tumefaciens. Conditions: 1 or 5 microgram per ml in IB plates. On the procedure:
Catalase purchased from Sigma was added into IB plates at a final concentration of 1 or 5 microgram per ml. AG6 cells (carrying the katA-gfp fusion) were then grown on the IB plate. […] To ensure that the catalase in the IB medium was still active, hydrogen peroxide was dropped onto the catalase-containing plate. Air bubbles were instantly visible in the catalase-containing plate; no air bubble was found in the control catalase-free IB plate. […] Therefore, it can be concluded that extracellular catalase could not remove the intracellular hydrogen peroxide.

The subject of another data set is katA-gfp fusion. Conditions: AG6 in MG/L, 30-120 μM H2O2, 2 hours.

As to “KatA: Agrobacterium tumefaciens catalase encoded by katA; putative protein of 723 amino acids, 78.7 kDa”, the “Peroxidase activity associated with the catalase activity bands” value in data set [1] is reported as “no peroxidase activity”. Besides, the “Repression of aopB-gfp expression” value with aopB-gfp was “did not repress”. Also, the Catalase activity in data set [2] (gene on plasmid in AG6, driven by katA and lac promoters (pXQ23, pXQ26, pXQ27)) is reported as 77145.5 ± 440.3 unit/10^8 cells; in data set [2] (gene on plasmid in AG6, driven by katA promoter (pXQ9, pXQ11, pXQ22)) it was 3997.3 ± 459.1 unit/10^8 cells; in data set [2] (strain AG6 (katA disrupted by mini-Tn5)), 175.2 ± 20.2^c unit/10^8 cells; in data set [2] (wild type strain A348), 1486.2 ± 149.5 unit/10^8 cells.

Catalase: the “Repression of katA-gfp expression by catalase added to the medium” value in data set [3] is listed as “did not repress katA-gfp expression”.

With `OO` [H2O2, hydrogen peroxide], the “katA-gfp expression levels in presence of H2O2” value in the data set with katA-gfp fusion was “increased significantly”.
